Measured values from patent US6090945A, “Tetrahydro-beta-carbolines” (Eli Lilly and Company, priority 1998, dated 2000).

How the values were obtained:
[1] = molecular target: 5-HT2 receptor (Rattus norvegicus, UniProt P14842); test: 5-HT2 radioligand binding assay ([3H]ketanserin displacement); set-up: species or system rat (Sprague-Dawley cerebral cortex); settings: rat cerebral cortex; tritiated ketanserin 1 nM; 37° C.; read-out: 5HT2 IC50 (binding displacement)
[2] = molecular target: T1, cloned rat 5-HT2B receptor (Rattus norvegicus, UniProt P30994); test: 5-HT2B radioligand binding ([3H]5-HT), cloned rat receptor; settings: [3H]5-HT 2 nM, read-out: Rat 2B binding (IC50 converted to Ki)
T1 construct: expressed in transfected cells
Description: (§1) RAdioligand Binding Studies for 5-HT2 B:
Membrane preparation from transformed cells. Suspension cells expressing the cloned rat 5-HT2B receptor were harvested by centrifugation at 200×g for 15 min at 4° C. […] Membranes for the binding assays were prepared by vortexing the pellet in 50 mM Tris-HCl, pH 7.4 (0.5×10^9 cells/30 ml). The tissue suspension was then centrifuged at 39,800×g for 10 min at 4° C. This procedure was repeated for a total of three washes, with a 10 minute incubation at 37° C. between the first and second wash.
[^3 H]5-HT binding studies. Binding assays were automated using a Biomek 1000 (Beckman Instruments, Fullerton, Calif.) and were performed in triplicate in 0.8 ml total volume. Membrane suspension, 200 μl, (0.04-0.27 mg protein) and 200 μl of drug dilution in water were added to 400 μl of 67 mM Tris-HCl, pH 7.4, containing [^3 H]5-HT, pargyline, CaCl2, and L-ascorbic acid. Final concentrations of pargyline, CaCl2 and L-ascorbic acid were 10 μM, 3 mM and 0.1%, respectively. […] The amount of [^3 H]5-HT trapped on the filters was determined by liquid scintillation spectrometry (Ready Protein and Beckman LS 6000IC, Beckman Instruments, Fullerton, Calif.). For the saturation experiments, actual free radioligand concentrations were determined by sampling the supernatant of parallel saturation experiments in which bound radioactivity had been separated by centrifugation. […] Protein was determined by the method of Bradford, using bovine serum albumin as the standard.
(§2) The Kd and Bmax values from the saturation assays were determined for best fit to a one-site or a two-site binding model using a partial F-test. […] The IC50 values from the competition assays, the binding parameters for the IP3 standard curve and the EC50 and Emax values from the IP3 assays were determined by nonlinear regression analysis of four parameter logistic equations (Systat, Systat Inc, Evanston, Ill.). […]

[3] = molecular target: Human 2B (Homo sapiens, UniProt P41595); test: radioligand binding, human 2B; settings: read-out: Human 2B binding (IC50 converted to Ki)
Description: as §1
[^3 H]5-HT binding studies. Binding assays were automated using a Biomek 1000 (Beckman Instruments, Fullerton, Calif.) and were performed in triplicate in 0.8 ml total volume. Membrane suspension, 200 μl, (0.04-0.27 mg protein) and 200 μl of drug dilution in water were added to 400 μl of 67 mM Tris-HCl, pH 7.4, containing [^3 H]5-HT, pargyline, CaCl2, and L-ascorbic acid. Final concentrations of pargyline, CaCl2 and L-ascorbic acid were 10 μM, 3 mM and 0.1%, respectively. Tubes were incubated at 37° C. for 15 min or at 0° C. for 2 hours (binding equilibria were verified for both of these conditions), then rapidly filtered using a Brandel cell harvester (Model MB-48R; Brandel, Gaithersburg, Md.) through Whatman GF/B filters which had been presoaked in 0.5% polyethylenimine and precooled with ice-cold 50 mM Tris-HCl, pH 7.4. The filters were then washed rapidly four times with one ml ice-cold 50 mM Tris-HCl, pH 7.4. The amount of [^3 H]5-HT trapped on the filters was determined by liquid scintillation spectrometry (Ready Protein and Beckman LS 6000IC, Beckman Instruments, Fullerton, Calif.). For the saturation experiments, actual free radioligand concentrations were determined by sampling the supernatant of parallel saturation experiments in which bound radioactivity had been separated by centrifugation. […] 5-HT, 10 μM, or 1-naphthylpiperazine (1-NP), 10 μM, defined nonspecific binding. […] Protein was determined by the method of Bradford, using bovine serum albumin as the standard.
as §2

[4] = molecular target: Human 2A (Homo sapiens, UniProt P28223); test: radioligand binding, human 2A; settings: read-out: Human 2A binding (IC50 converted to Ki)
Description: The Kd and Bmax values from the saturation assays were determined for best fit to a one-site or a two-site binding model using a partial F-test. De Lean, A., A. A. Hancock, and R. J. Lefkowitz, Mol. Pharmacol. 21: 5-16 (1981). The following equation was used for a one-site binding model, [formula] where Bound=amount of [^3 H]5-HT specifically bound, Bmax =maximum number of binding sites, Kd =equilibrium dissociation constant and [L]=free concentration of [^3 H]5-HT, or a two-site binding model, [formula] where Bound=amount of [^3 H]5-HT specifically bound, Bmax1 =maximum number of high affinity binding sites, Bmax2 =maximum number of low affinity binding sites, Kd1 =equilibrium dissociation constant for the high affinity site, Kd2 =equilibrium dissociation constant for the low affinity site and [L]=free concentration of [^3 H]5-HT. The IC50 values from the competition assays, the binding parameters for the IP3 standard curve and the EC50 and Emax values from the IP3 assays were determined by nonlinear regression analysis of four parameter logistic equations (Systat, Systat Inc, Evanston, Ill.). De Lean, A., A. A. Hancock, and R. J. Lefkowitz, Mol. Pharmacol., 21: 5-16 (1981). The IC50 values were converted to Ki values using the Cheng-Prusoff equation. Cheng, Y., and W. H. Prusoff, Biochem. Pharmacol., 22: 3099-3108 (1973).

[5] = molecular target: T2, 5-HT1c receptor (Bos taurus, UniProt A0AAA9SBU1); test: 5-HT1c radioligand binding assay ([3H]mesulergine displacement); settings: read-out: 5HT1C IC50 (binding displacement); choroid plexus; tritiated mesulergine 2.0 nM; 37° C., 15 minutes
T2 sequence (A0AAA9SBU1 33-457): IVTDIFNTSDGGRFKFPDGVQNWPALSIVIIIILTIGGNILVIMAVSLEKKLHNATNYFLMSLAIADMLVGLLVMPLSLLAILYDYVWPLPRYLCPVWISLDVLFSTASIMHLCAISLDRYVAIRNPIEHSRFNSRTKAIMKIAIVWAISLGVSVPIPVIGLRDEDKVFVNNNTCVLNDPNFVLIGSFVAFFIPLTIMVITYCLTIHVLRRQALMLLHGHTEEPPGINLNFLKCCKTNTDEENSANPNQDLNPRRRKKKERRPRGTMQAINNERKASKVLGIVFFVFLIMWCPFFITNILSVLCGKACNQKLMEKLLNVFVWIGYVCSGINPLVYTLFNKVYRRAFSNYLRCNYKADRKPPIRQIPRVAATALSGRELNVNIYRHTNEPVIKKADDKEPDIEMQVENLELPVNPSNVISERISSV
Description: I. Assay for 5-HT1c Affinity
Beef brain was removed immediately after slaughter, and choroid plexus were dissected over ice. […] Tissues were homogenized in 9 volumes of 0.32 mol/L sucrose and centrifuged at 1,000×g for 10 minutes. The supernatant was centrifuged at 17,000×g for 20 minutes. The pellet was suspended in 100 volumes of 50 mM Tris-HCl (pH7.4), incubated at 37° C. for 10 minutes and centrifuged at 50,000×g for 10 minutes, and the process was repeated three times. The final pellets were frozen at -70° C. and used within 2 weeks. Pellets were rehydrated with physiological buffer prior to use.
The reactions were terminated by rapid filtration, (Brandel Cell Harvestor), through Whatman GF/B glass filters that had been presoaked in Tris buffer pH 7.4. The filters were then washed 2 times with 5 ml of ice cold Tris buffer pH 7.4. Washed filters were placed in scintillation vials and 10 ml RedySolv, (Brandel), was added and samples were counted in a Searle D-300 beta counter. Means and standard error statistics were calculated for triplicate experimental determinations in certain cases. Mean values were obtained from three or more separate determinations. The incubation time for the reaction mixture was 15 minutes at 37° C.

Chain of Human 2B (P41595 whole entry): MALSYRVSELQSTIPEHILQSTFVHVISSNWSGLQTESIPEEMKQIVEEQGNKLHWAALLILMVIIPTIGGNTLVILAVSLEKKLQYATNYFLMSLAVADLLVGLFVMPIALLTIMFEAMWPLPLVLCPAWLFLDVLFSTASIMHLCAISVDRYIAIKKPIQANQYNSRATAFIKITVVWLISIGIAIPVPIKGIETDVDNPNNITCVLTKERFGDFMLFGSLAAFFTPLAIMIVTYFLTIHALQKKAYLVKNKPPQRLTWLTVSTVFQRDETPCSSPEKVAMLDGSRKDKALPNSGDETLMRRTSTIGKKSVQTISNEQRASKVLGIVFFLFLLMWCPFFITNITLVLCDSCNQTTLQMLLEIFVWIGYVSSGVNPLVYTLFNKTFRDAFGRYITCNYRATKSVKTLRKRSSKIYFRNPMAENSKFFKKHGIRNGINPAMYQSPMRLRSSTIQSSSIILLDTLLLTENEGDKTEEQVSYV
Chain of Human 2A (P28223 whole entry): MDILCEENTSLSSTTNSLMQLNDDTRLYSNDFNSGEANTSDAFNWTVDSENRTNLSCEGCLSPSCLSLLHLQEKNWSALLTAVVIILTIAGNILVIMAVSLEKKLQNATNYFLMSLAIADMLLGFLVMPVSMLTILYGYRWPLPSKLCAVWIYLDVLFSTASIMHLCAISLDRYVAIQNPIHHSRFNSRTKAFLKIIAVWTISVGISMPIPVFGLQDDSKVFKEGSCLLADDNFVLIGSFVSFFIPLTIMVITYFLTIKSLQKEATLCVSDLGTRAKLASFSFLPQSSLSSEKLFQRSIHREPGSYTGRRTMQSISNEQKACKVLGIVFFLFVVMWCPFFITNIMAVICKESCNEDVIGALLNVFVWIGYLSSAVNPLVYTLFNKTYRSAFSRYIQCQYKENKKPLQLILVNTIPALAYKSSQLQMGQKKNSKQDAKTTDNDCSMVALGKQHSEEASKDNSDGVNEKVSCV
Chain of 5-HT2 receptor (P14842 whole entry): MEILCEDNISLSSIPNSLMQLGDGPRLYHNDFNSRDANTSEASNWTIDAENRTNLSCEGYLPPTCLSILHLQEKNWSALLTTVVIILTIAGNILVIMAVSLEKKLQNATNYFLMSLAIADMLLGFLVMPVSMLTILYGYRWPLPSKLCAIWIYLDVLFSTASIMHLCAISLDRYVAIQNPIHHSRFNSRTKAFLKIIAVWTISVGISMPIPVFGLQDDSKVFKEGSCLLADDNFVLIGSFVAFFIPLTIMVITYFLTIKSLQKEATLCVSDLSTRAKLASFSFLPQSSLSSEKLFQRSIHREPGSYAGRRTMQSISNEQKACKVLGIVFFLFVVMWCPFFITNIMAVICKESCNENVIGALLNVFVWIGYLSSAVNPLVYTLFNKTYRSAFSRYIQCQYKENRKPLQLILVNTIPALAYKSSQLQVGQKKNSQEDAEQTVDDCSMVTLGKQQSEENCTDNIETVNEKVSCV
T1 sequence (P30994 whole entry): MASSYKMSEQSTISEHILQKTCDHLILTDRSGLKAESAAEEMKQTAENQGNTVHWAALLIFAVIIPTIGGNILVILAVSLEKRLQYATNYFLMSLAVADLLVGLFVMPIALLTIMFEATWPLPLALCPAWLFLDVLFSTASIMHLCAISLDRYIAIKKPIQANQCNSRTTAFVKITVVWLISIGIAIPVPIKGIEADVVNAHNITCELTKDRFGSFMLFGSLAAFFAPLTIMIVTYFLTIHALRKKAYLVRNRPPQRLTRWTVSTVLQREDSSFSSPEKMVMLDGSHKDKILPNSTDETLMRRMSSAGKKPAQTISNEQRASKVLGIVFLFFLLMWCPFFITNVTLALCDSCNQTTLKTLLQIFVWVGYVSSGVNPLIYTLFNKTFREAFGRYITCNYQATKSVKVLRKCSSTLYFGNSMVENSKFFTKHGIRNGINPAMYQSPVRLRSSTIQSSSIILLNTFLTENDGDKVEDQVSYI

| Structure (SMILES) | IC50 [1] [nM] | Ki [2] [nM] | Ki [3] [nM] | Ki [4] [nM] | IC50 [5] [nM] |
| --- | --- | --- | --- | --- | --- |
| COc1ccc([C@@H](C)[C@@H]2NCCc3c2[nH]c2ccc(C)cc32)cc1OC (relative stereo) [Example 40] | 293 | 5.61 | 1.4 | 44.5 | 171 |
| COc1ccc([C@@H](C)[C@@H]2NCCc3c2[nH]c2cc(C)c(C)cc32)cc1OC (relative stereo) [Example 41, (±) 6,7-dimethyl-1-[(3,4-dimethoxyphenyl)-1-ethyl]-1,2,3,4-tetrahydro-9H-pyrido[3,4-b]indole (Z)-2-butenedioate] | 173 | 6.42 | 2.01 | 23.1 | 127 |
| CC[C@H](c1ccc(OC)c(OC)c1)[C@@H]1NCCc2c1[nH]c1ccc(C)cc21 (relative stereo) [Example 43, (±) 6-methyl-1-[(3,4-dimethoxyphenyl)-1-propyl]-1,2,3,4-tetrahydro-9H-pyrido[3,4-b]indole (Z)-2-butenedioate] | 178 | – | 0.87 | 17.5 | 139 |
